Values quoted from earlier work as cited in patent US20220378880A1, “PHARMACEUTICAL COMPOSITIONS OF GHRH ANALOGS AND USES THEREOF” (Theratechnologies Inc., priority 2019, published 2022).

[1] = healthy subjects, single SC 2 mg dose

- Absolute bioavailability (healthy adult subjects, SC 2 mg dose): less than 4%
- Extent of absorption, mean (CV) [1]: 634.6 (72.4) pg·h/mL
- Peak tesamorelin concentration (Cmax), mean (CV) [1]: 2874.6 (43.9) pg/mL
- Thalf (expected) (single SC 2 mg dose): 0.4 h
- Tmax (expected) (single SC 2 mg dose, median): 9 min
Structure (SMILES): CC/C=C/CC(=O)N[C@@H](Cc1ccc(O)cc1)C(=O)N[C@@H](C)C(=O)N[C@@H](CC(=O)O)C(=O)N[C@@H](C)C(=O)N[C@H](C(=O)N[C@@H](Cc1ccccc1)C(=O)N[C@H](C(=O)N[C@@H](CC(N)=O)C(=O)N[C@@H](CO)C(=O)N[C@@H](Cc1ccc(O)cc1)C(=O)N[C@@H](CCCNC(=N)N)C(=O)N[C@@H](CCCCN)C(=O)N[C@H](C(=O)N[C@@H](CC(C)C)C(=O)NCC(=O)N[C@@H](CCC(N)=O)C(=O)N[C@@H](CC(C)C)C(=O)N[C@@H](CO)C(=O)N[C@@H](C)C(=O)N[C@@H](CCCNC(=N)N)C(=O)N[C@@H](CCCCN)C(=O)N[C@@H](CC(C)C)C(=O)N[C@@H](CC(C)C)C(=O)N[C@@H](CCC(N)=O)C(=O)N[C@@H](CC(=O)O)C(=O)N[C@H](C(=O)N[C@@H](CCSC)C(=O)N[C@@H](CO)C(=O)N[C@@H](CCCNC(=N)N)C(=O)N[C@@H](CCC(N)=O)C(=O)N[C@@H](CCC(N)=O)C(=O)NCC(=O)N[C@@H](CCC(=O)O)C(=O)N[C@@H](CO)C(=O)N[C@@H](CC(N)=O)C(=O)N[C@@H](CCC(N)=O)C(=O)N[C@@H](CCC(=O)O)C(=O)N[C@@H](CCCNC(=N)N)C(=O)NCC(=O)N[C@@H](C)C(=O)N[C@@H](CCCNC(=N)N)C(=O)N[C@@H](C)C(=O)N[C@@H](CCCNC(=N)N)C(=O)N[C@@H](CC(C)C)C(N)=O)[C@@H](C)CC)C(C)C)[C@@H](C)O)[C@@H](C)CC [tesamorelin, trans-3-hexenoyl-GHRH(1-44)-NH2]
